Read-outs that look alike come from different tables or passages of the source.
Columns and labels:
Hsp90α Protein = Hsp90α Protein (Homo sapiens, UniProt P07900); assay: Hsp90 CE Competitive Binding Assay (displacement of fluorescein-labelled geldanamycin)
Procedure: Hsp90 CE Competitive Binding Assay: […]
b) “Competitor”, fluorescein-labelled geldanamycin • The competitor was synthesized as described by Llauger-Bufi et al, Bioorg.
The electrophoresis running buffer (RB) is comprised of 200 mM CAPSO, pH 9.2 (pH-adjusted with Trizma base). The sample buffer (SB) is comprised of 10 mM Trizma base, pH 8.0 (pH-adjusted with glacial acetic acid), 5 mM MgCl2, 5 mM DTT, and BSA and Triton as noted.
Capillary electrophoresis was performed on Cetek Gemini Systems™ using laser-induced fluorescence detection. Fused-silica capillaries (50 μm I.D.×30 cm, approximately 10 cm length from end to detection window) were internally coated using Cetek's proprietary methods.
Each sample (i.e., fermentation extract, partially-purified fraction, or compound mixture, or pure compound) to be assayed is prediluted 1:20 or 1:40 in SB containing 0.02% Triton. 1 μl of each prediluted sample is then deposited into a 96-well microtiter plate and mixed with 8 μl of Target Cocktail. These samples can be stored at 4° C. until ready for assay.
When ready for analysis, the plates are transferred to the deck of a Gemini System. To each mixture of sample and target, 1 μl of Competitor Cocktail is added and mixed thoroughly. This reaction mixture is allowed to incubate for 8 minutes on the refrigerated deck of the Gemini System (temperature 8° C.). During incubation, the CE capillary is rinsed for 30 seconds with RB containing 2 mg/ml BSA, and then 60 seconds with RB. At the end of incubation, a small plug of the reaction mixture is then injected into the capillary at low pressure (0.5 psi) for 7 seconds. The loaded capillary is then dipped into reservoirs containing RB and the sample is electrophoresed at 10 kV for 6 minutes at a temperature of 8° C.
The electrophoretic separation produces a graphical profile known as an “electropherogram,” which contains a peak representing the intact complex between Hsp90 and competitor, and a smaller series (typically, a triplet) of peaks representing unbound competitor. […] Dose-response experiments, which evaluate the degree of competitor displacement as a function of sample concentration, are subsequently run in triplicate to validate hits and to quantitate their potencies, which are expressed as IC50 values.
Negative controls are comprised of 0.5% DMSO, and positive controls are comprised of 0.1 μg/ml 17-AAG.

[1] = test system: Hsp90 (luciferase refolding, cancer cell lysate); assay: Luciferase Refolding Assay; assay type: biochemical; conditions: inhibition of luciferase refolding by Hsp90
Procedure: Luciferase Refolding Assay
• A. Cancer cells are cultured according to ATCC guidelines. Cell lysates are prepared as follows to be used as source of heat shock proteins: Resuspend the washed cell pellet in 3˜10 packed cell volumes of Buffer A (10 mM HEPES pH 7.9, 1.5 mM MgCl2, 10 mM KCl, 0.5 mM DTT, and 0.2 mM PMSF). Spin at 2000 rpm for 5 minutes in GS-6R (Beckman) centrifuge, 4° C. and resuspend cells in Buffer A up to a final of 3 packed cell volumes (i.e., add ˜2 volumes). Incubate on ice for 10 minutes. Transfer the cells to a Wheaton A Dounce homogenizer and lyse with 10-25 strokes. Stain an aliquot with Trypan Blue and check for >90% lysis under microscope. Spin the homogenized mixture at 3000 rpm for 20 minutes in GS-6R (Beckman) centrifuge, 4° C., to pellet nuclei. To the cytoplasmic fraction (cell lysate), add 1 mM ATP, 14.3 mM creatine phosphate, 71 μg/ml phosphokinase, 3 mM DTT, 113 mM KAc, and 0.7 mM MgAc2. Aliquot into eppendorf tubes and freeze at −80° C. • B. Luciferase Stability Buffer (SB): 25 mM Tris-HCl, pH 7.8; 8 mM MgSO4; 0.1 mM EDTA; 10 mg/ml BSA; 10% Glycerol; 0.25% Triton X-100. Make 2×SB and store at −20° C. • C. Cell Lysate (CL) Buffer: Buffer A containing 1 mM ATP; 14.3 mM creatine phosphate; 71 ug/ml phosphokinase; 3 mM DTT; 113 mM KAc; and 0.7 mM MgAc2. • D. Luciferase: Promega E1701, 14.9 mg/ml=244 μM. Dilute 1:60 in 30 mM Tris-HCl, pH 7.4, 2 mM DTT, and 20% glycerol, resulting in a stock luciferase solution with concentration of 4 μM (250 ng/μl). • E. Luciferase substrate: Promega E1500. Procedure: • 1) Mix luciferase solution 1:1 with 2× SB buffer. Incubate at 42° C. for 8 min to denature. […] Data analysis: Luciferase refolding activity of a cell lysate sample with or without HSP90 inhibitor is represented as the net of luminescence reading from a cell lysate sample subtracting results from negative control (no cell lysate or heat shock proteins). Inhibition effect of a compound is calculated as the percentage of refolding activity relative to samples without any inhibitors in the cell lysate.
The ability of selected compounds of the invention to inhibit luciferase refolding by Hsp90 based on this assay is summarized in Table 14.

[2] = test system: HER2/Neu protein in SK-OV-3 cells; assay: Hsp90 Client Protein Degradation Assay; assay type: cell-based; conditions: for IC50: Homo sapiens, 50% degradation of HER2/Neu protein, SK-OV-3 cells, overnight
Procedure: Hsp90 Client Protein Degradation Assay
SK-OV-3 cells were obtained from ATCC (Rockville, Md.) and maintained in McCoy's 5A Media with 10% Fetal Bovine Serum (ATCC) at 37° C. with 5% CO2 in humidified incubators. Cells were plated at 2 ml per well at 100,000 cells/ml in six well dishes. Cells were incubated overnight at 37° C. and given test agent compound the following day in a titrated series. Cell incubation in the presence of compound proceeded overnight at 37° with 5% CO2 in media in the presence of serum. The following day media was aspirated and cells washed on plate with 2 mls of cold D-PBS. 100 ul of 1× Laemli's buffer was added to each well and total protein obtained by scraping the cell pellet and removing to 1.5 ml Eppendorf tube on ice. Cells were further lysed and DNA was fragmented by sonication and cells debris pelleted at 14 K for 3 min at 4° C. 20 ul was loaded per well and fractionated on PAGE gels. Western analyses were performed using abs specifically for the Hsp90 client proteins HER-2 (Santa Cruz Biotech, Santa Cruz, Calif.) and c-raf-1 (Cell Signaling Technology, Danvers, Mass.). Loading per well was controlled by testing for g-actin on Western Blots (Cell Signaling Technology) simultaneous to testing for HER-2 or c-raf-1. Detection was via a secondary antibody conjugated to Horse radish peroxidase (HRP) and enhanced chemiluminescent detection from Supersignal West Pico Detection Kits from Pierce (Rockford, Ill.). Autoradiography was via Kodak X-OMAT film and developing via a Kodak M35 film processor.

Human cancer cell lines = assay: Cancer-Derived Cell Line Growth Inhibition Assays; assay type: cell-based; conditions: 72 h, 3 days, Cell Titer Blue
Procedure: Cancer-Derived Cell Line Growth Inhibition Assays
Human cancer cell lines were obtained from ATCC (Rockville, Md.) and maintained according to their media specifications at 37° C. in humidified incubators with or without 5% CO2. Cells were plated at 0.1 ml/well of 50,000 cells per ml in 96 well plates. Monolayer grown cells were incubated overnight prior to the addition of compound while cells grown in suspension are given compound on the same day as plating. The test agent is titrated in duplicate for each compound and concentration tested. Cells are incubated in the presence of compound at 37° C. in humidified incubators for 3 days prior to addition of 20 ul of Cell Titer Blue (Promega, Madison, Wis.) which quantifies total cellular metabolic activity by conversion of resazurin to resorufin. Cell titer blue measures metabolic activity by quantifying the amount of biological activity present in a well using reduction of the dye resazurin as an end-point metric. Cells then are allowed to incubate at 37° C. for 2 hours and then analyzed using a Bio-TEK (Winooski, Vt.) Synergy HT 96/384 well plate reader set for 530 nm/590 nm, Ex/Em. Data analysis and depiction is conducted using EXCEL.

[3] = Table 14, inhibition of binding of labeled geldanamycin to Hsp90, read-out: CE IC50
[4] = versus corresponding alcohol (R═H)
[5] = initial structure activity relationship table, read-out: HSP90 CE IC50

Row | Compound | IC50 (Hsp90α Protein; [3]) [nM] | IC50 [1] [nM] | IC50 [2] [nM] | IC50 (Human cancer cell lines) [µM] | more activity than the corresponding alcohol (R═H), CE Hsp90 assay (Hsp90α Protein; [4]) [fold] | more activity than the corresponding alcohol (R═H), client protein assay [2, 4] [fold] | IC50 (Hsp90α Protein) [nM] | IC50 (Hsp90α Protein; [5]) [nM]
1 | Nc1nc(F)nc2c1nc(Cc1cc3c(cc1I)OCO3)n2CCCCCOS(N)(=O)=O [Example 4, Sulfamic Acid 5-[6-amino-2-fluoro-8-(6-iodo-benzo[1,3]dioxol-5-ylmethyl)-purin-9-yl]-pentyl ester] | < 40 | < 1000 | < 3000 | < 5 |  |  |  | 
2 | Nc1nc(F)nc2c1nc(Cc1cc3c(cc1I)OCO3)n2CCCCCCCOS(N)(=O)=O [Example 6, Sulfamic Acid 7-[6-amino-2-fluoro-8-(6-iodo-benzo[1,3]dioxol-5-ylmethyl)-purin-9-yl]-heptyl ester] | < 40 | < 1000 | < 3000 | < 5 |  |  |  | 
3 | Nc1nc(F)nc2c1nc(Cc1cc3c(cc1I)OCO3)n2CCOS(N)(=O)=O [Example 1, Sulfamic Acid 2-[6-amino-2-fluoro-8-(6-iodo-benzo[1,3]dioxol-5-ylmethyl)-purin-9-yl]-ethyl ester] | < 40 | < 1000 | < 3000 | < 5 |  |  |  | 
4 | Nc1nc(F)nc2c1nc(Cc1cc3c(cc1I)OCO3)n2CCOCCCCOS(N)(=O)=O [Example 10, Sulfamic Acid 4-{2-[6-amino-2-fluoro-8-(6-iodo-benzo[1,3]dioxol-5-ylmethyl)-purin-9-yl]-ethoxy}-butyl ester] | < 40 | < 1000 | < 3000 | < 5 |  |  |  | 
5 | Nc1nc(F)nc2[nH]c(Cc3cc4c(cc3I)OCO4)nc12 [Intermediate 5, 2-Fluoro-8-(6-iodo-benzo[1,3]dioxol-5-ylmethyl)-9H-purin-6-ylamine] | < 2000 | < 5000 | < 50000 | < 100 |  |  |  | 
6 | Nc1nc(F)nc2c1nc(Cc1cc3c(cc1I)OCO3)n2CCCOS(N)(=O)=O [Example 2, Sulfamic Acid 3-[6-Amino-2-fluoro-8-(6-iodo-benzo[1,3]dioxol-5-ylmethyl)-purin-9-yl]-propyl ester] | < 40 | < 1000 | < 3000 | < 5 |  |  |  | 
7 | Nc1nc(F)nc2c1nc(Cc1cc3c(cc1I)OCO3)n2CCOCCOS(N)(=O)=O [Example 8, Sulfamic Acid 2-{2-[6-amino-2-fluoro-8-(6-iodo-benzo[1,3]dioxol-5-ylmethyl)-purin-9-yl]-ethoxy}-ethyl ester] | < 40 | < 1000 | < 3000 | < 5 |  |  |  | 
8 | Nc1nc(F)nc2c1nc(Cc1cc3c(cc1I)OCO3)n2CCCCCCOS(N)(=O)=O [Example 5, Sulfamic Acid 6-[6-amino-2-fluoro-8-(6-iodo-benzo[1,3]dioxol-5-ylmethyl)-purin-9-yl]-hexyl ester] | < 40 | < 1000 | < 3000 | < 5 | 35 | 16 |  | 
9 | Nc1nc(F)nc2c1nc(Cc1cc3c(cc1I)OCO3)n2CCCCCCCCOS(N)(=O)=O [Example 7, Sulfamic Acid 8-[6-amino-2-fluoro-8-(6-iodo-benzo[1,3]dioxol-5-ylmethyl)-purin-9-yl]-octyl ester] | < 2000 |  | < 50000 | < 100 |  |  |  | 
10 | Nc1nc(F)nc2c1ncn2C1OC(CO)C(O)C1O (centres unmarked) [Fluoroadenosine (FA), Fluoroadenosine, reference compound] |  |  |  |  |  |  | 22000 | 
11 | Nc1nc(F)nc2c1nc(Cc1cc3c(cc1I)OCO3)n2CCOCCCOS(N)(=O)=O [Example 9, Sulfamic Acid 3-{2-[6-amino-2-fluoro-8-(6-iodo-benzo[1,3]dioxol-5-ylmethyl)-purin-9-yl]-ethoxy}-propyl ester] | < 40 | < 1000 | < 3000 | < 5 |  |  |  | 
12 | Nc1nc(F)nc2c1ncn2C1OC(COS(N)(=O)=O)C(O)C1O (centres unmarked) [FSA, reference compound] |  |  |  |  |  |  |  | 700
13 | Nc1ncnc2c1ncn2C1OC(COP(=O)(O)O)C(O)C1O (centres unmarked) [AMP, reference compound] |  |  |  |  |  |  |  | > 144000
